Assay results taken from patent US10329282B2, “Rho-associated protein kinase inhibitor, pharmaceutical composition comprising the same, as well as preparation method and use thereof” (Beijing Tide Pharmaceutical Co., Ltd., priority 2017, dated 2019).

Biological target: ROCK2 (Homo sapiens (Human), UniProt O75116)
Test: ROCK2 kinase IC50 assay (CISBIO HTRF KinEASE-STK S2 kit)
Type: biochemical
Conditions: ROCK2 from Carna Biosciences, 2 h incubation at room temperature
Method: The kinase IC50 was determined by a commercialized CISBIO kinase detection kit, HTRF KinEASE-STK S2 kit (62ST2PEC). ROCK2 (01-119) employed in the reaction was purchased from Carna Biosciences.
Before the assay, the following working solutions as needed were formulated with corresponding reagents according to the instruction of the kinase detection kit: 1×kinase buffer, 5×STK-52 substrate working solution (1.5 μM) and 5×ATP working solution (1.5 μM), 5×ROCK2 kinase working solution, 4×Streptavidin-XL665 working solution, and 4×STK-Ab-Cryptate 2 detection solution. Then the assay was performed according to the following procedure.
A solution of a compound at a concentration of 10000 nM was prepared with the 1×kinase buffer containing 2.5% DMSO. Gradient dilution of the solution of the compound was performed with the kinase buffer containing DMSO, so as to obtain solutions of a test compound at 9 different concentrations. In addition to wells of test compounds, a positive well (containing all the reagents except the compound) and a negative well (containing all the reagents except the test compound and kinase) were set. Except for the control wells (positive and negative wells), a solution of a test compound (4 μL) was added to each of the reaction wells, and a solution of 2.5% DMSO was added to the control wells. Then the substrate (2 μM, i.e., 2 μL 5×STK-S2 substrate working solution) was added to each of the reaction wells. The 5×ROCK2 kinase working solution (2 μL, containing 1.4 ng ROCK2 kinase) was added to each of the reaction wells except for the negative well, the volume of which was made up with the 1×kinase buffer (2 μL). The 5×ATP working solution (2 μL) was added to each of the reaction wells, and the mixtures were incubated at room temperature for 2 hours. After the kinase reaction was complete, the 4×Streptavidin-XL665 working solution was added to each of the reaction wells, the solutions were mixed, followed by immediate addition of the 4×STK-Ab-Cryptate 2 detection solution (5 μL), and the mixtures were incubated at room temperature for 1 hour. The fluorescence signal was read on ENVISION (Perkinelmer) (excitation wavelength: 320 nm, and emission wavelength: 665 nm and 615 nm). The inhibitory rate in each well was calculated based on the fluorescence intensity value: ER (Emission Ratio)=(fluorescence intensity at 665 nm/fluorescence intensity at 615 nm); inhibitory rate=(ERpositive−ERtest compound) (ERpositive−ERnegative)*100%. Curves were plotted and fitted to obtain the median inhibitory concentration (IC50) of each teat compound with the PRISM 5.0 software.

Chain of ROCK2 (O75116 1-553): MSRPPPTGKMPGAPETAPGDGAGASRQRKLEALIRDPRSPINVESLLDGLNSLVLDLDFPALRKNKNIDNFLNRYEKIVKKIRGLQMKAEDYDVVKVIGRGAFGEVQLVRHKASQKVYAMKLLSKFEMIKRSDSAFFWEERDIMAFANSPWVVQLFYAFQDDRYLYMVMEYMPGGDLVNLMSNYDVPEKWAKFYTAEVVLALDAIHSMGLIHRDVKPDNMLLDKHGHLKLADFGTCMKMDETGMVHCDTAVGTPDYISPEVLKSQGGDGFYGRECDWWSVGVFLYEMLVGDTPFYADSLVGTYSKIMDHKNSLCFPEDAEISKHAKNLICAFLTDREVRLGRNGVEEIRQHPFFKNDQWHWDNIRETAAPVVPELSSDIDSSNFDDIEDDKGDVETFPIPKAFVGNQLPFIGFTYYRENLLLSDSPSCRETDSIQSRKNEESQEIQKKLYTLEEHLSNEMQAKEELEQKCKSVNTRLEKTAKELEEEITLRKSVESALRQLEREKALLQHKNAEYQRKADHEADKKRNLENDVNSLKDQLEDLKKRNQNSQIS

| IC50 [nM] | Compound |
| --- | --- |
| 422 | CN(C)C(=O)c1cc2ccc(-c3nccc(Nc4ccc5[nH]ncc5c4)n3)cc2s1 [TDI01110, 6-(4-((1H-indazol-5-yl)amino)pyrimidin-2-yl)-N,N-dimethylbenzo[b]thiophene-2-carboxamide] |
| 73 | CC(C)NC(=O)N1Cc2ccc(-c3nccc(Nc4ccc5[nH]ncc5c4)n3)cc2C1 [TDI01312, 5-(4-((1H-indazol-5-yl)amino)pyrimidin-2-yl)-N-isopropylisoindoline-2-carboxamide] |
| 272 | CN(C(=O)c1cc2ccc(-c3nccc(Nc4ccc(-c5cn[nH]c5)cc4)n3)cc2[nH]1)C1CC(O)C1 (centres unmarked) [TDI01418] |
| 94 | CC(C)NC(=O)c1cc2ccc(-c3nccc(Nc4ccc(-c5cn[nH]c5)cc4)n3)cc2[nH]1 [TDI01280, 6-(4-((4-(1H-pyrazol-4-yl)phenyl)amino)pyrimidin-2-yl)-N-isopropyl-1H-indole-2-carboxamide] |
| 382 | O=C(Nc1ccccc1)c1cc2ccc(-c3nccc(Nc4ccc5[nH]ncc5c4)n3)cc2[nH]1 [TDI01215, 6-(4-((1H-indazol-5-yl)amino)pyrimidin-2-yl)-N-phenyl-1H-indole-2-carboxamide] |
| 336 | CCN(CC)C(=O)c1cc2ccc(-c3ncc(OC)c(Nc4ccc(-c5cn[nH]c5)cc4)n3)cc2[nH]1 [TDI01823, 6-(4-((4-(1H-pyrazol-4-yl)phenyl)amino)-5-methoxypyrimidin-2-yl)-N,N-diethyl-1H-indole-2-carboxamide] |
| 63 | O=C(Nc1cccnc1)c1cc2ccc(-c3nccc(Nc4ccc5[nH]ncc5c4)n3)cc2[nH]1 [TDI01171, 6-(4-((1H-indazol-5-yl)amino)pyrimidin-2-yl)-N-(pyridin-3-yl)-1H-indole-2-carboxamide] |
| 210 | O=C(Nc1ccncn1)c1cc2ccc(-c3nccc(Nc4ccc5[nH]ncc5c4)n3)cc2[nH]1 [TDI01161, 6-(4-((1H-indazol-5-yl)amino)pyrimidin-2-yl)-N-(pyrimidin-4-yl)-1H-indole-2-carboxamide] |
| 225 | CC(C)NC(=O)c1cc2ccc(-c3nc(Nc4ccc5[nH]ncc5c4)c4ccsc4n3)cc2[nH]1 [TDI01142, 6-(4-((1H-indazol-5-yl)amino)thieno[2,3-d]pyrimidin-2-yl)-N-isopropyl-1H-indole-2-carboxamide] |
| 447 | CNC(=O)c1cc2ccc(-c3nccc(Nc4ccc5[nH]ncc5c4)n3)cc2s1 [TDI01109, 6-(4-((1H-indazol-5-yl)amino)pyrimidin-2-yl)-N-methylbenzo[b]thiophene-2-carboxamide] |
| 210 | C[C@@H](NC(=O)c1cc2ccc(-c3nccc(Nc4ccc(-c5cn[nH]c5)cc4)n3)cc2[nH]1)c1ccncc1 [TDI01849B, (R)-6-(4-((4-(1H-pyrazol-4-yl)phenyl)amino)pyrimidin-2-yl)-N-(1-(pyridin-4-yl)ethyl)-1H-indole-2-carboxamide] |
| 275 | O=C(c1cc2ccc(-c3nccc(Nc4ccc(-c5cn[nH]c5)cc4)n3)cc2[nH]1)N1CCOC[C@H]1CO [TDI01853, (R)-(6-(4-((4-(1H-pyrazol-4-yl)phenyl)amino)pyrimidin-2-yl)-1H-indol-2-yl)(3-(hydroxymethyl)morpholino)methanone] |
| 123 | CC(C)NC(=O)c1cc2ccc(-c3nc(Nc4ccc5[nH]ncc5c4)c4occc4n3)cc2s1 [TDI01135, 6-(4-((1H-indazol-5-yl)amino)furo[3,2-d]pyrimidin-2-yl)-N-isopropylbenzo[b]thiophene-2-carboxamide] |
| 112 | CN1CCC(N2CCC(NC(=O)c3cc4ccc(-c5nccc(Nc6ccc7[nH]ncc7c6)n5)cc4[nH]3)CC2)CC1 [TDI01317, 6-(4-((1H-indazol-5-yl)amino)pyrimidin-2-yl)-N-(1′-methyl-[1,4′-bipiperidin]-4-yl)-1H-indole-2-carboxamide] |
| 242 | CC(C)NC(=O)C1Cc2ccc(-c3nccc(Nc4ccc5[nH]ncc5c4)n3)cc2N1 (centres unmarked) [TDI01292, 6-(4-((1H-indazol-5-yl)amino)pyrimidin-2-yl)-N-isopropylindoline-2-carboxamide] |
| 100 | O=C(NC1CC1)c1cc2ccc(-c3nccc(Nc4ccc5[nH]ncc5c4)n3)cc2s1 [TDI01111, 6-(4-((1H-indazol-5-yl)amino)pyrimidin-2-yl)-N-cyclopropylbenzo[b]thiophene-2-carboxamide] |

| IC50 [nM] | Compound |
| --- | --- |
| 147 | C[C@H](CN)NC(=O)c1cc2ccc(-c3nccc(Nc4ccc(-c5cn[nH]c5)cc4)n3)cc2[nH]1 [TDI01855, (R)-6-(4-((4-(1H-pyrazol-4-yl)phenyl)amino)pyrimidin-2-yl)-N-(1-aminopropan-2-yl)-1H-indole-2-carboxamide] |
| 109 | CC(NC(=O)c1cc2ccc(-c3nccc(Nc4ccc5[nH]ncc5c4)n3)cc2[nH]1)c1ccccc1 (centres unmarked) [TDI01140, 6-(4-((1H-indazol-5-yl)amino)pyrimidin-2-yl)-N-(1-phenylethyl)-1H-indole-2-carboxamide] |
| 71 | CC(C)NC(=O)c1cc2ccc(-c3nccc(Nc4ccc5[nH]ncc5c4)n3)cc2s1 [TDI01104, 6-(4-((1H-indazol-5-yl)amino)pyrimidin-2-yl)-N-isopropylbenzo[b]thiophene-2-carboxamide] |
| 22 | CC(C)NC(=O)c1cc2ccc(-c3nccc(Nc4ccc5[nH]ncc5c4)n3)cc2[nH]1 [TDI01108, 6-(4-((1H-indazol-5-yl)amino)pyrimidin-2-yl)-N-isopropyl-1H-indole-2-carboxamide] |
| 477 | CN(C(=O)c1cc2ccc(-c3nccc(Nc4ccc(-c5cn[nH]c5)cc4)n3)cc2[nH]1)C1CCC1 [TDI01420] |
| 185 | O=C(NC1CCCCC1)c1cc2ccc(-c3nccc(Nc4ccc5[nH]ncc5c4)n3)cc2s1 [TDI01112, 6-(4-((1H-indazol-5-yl)amino)pyrimidin-2-yl)-N-cyclohexylbenzo[b]thiophene-2-carboxamide] |
| 138 | O=C(NC1CCC1)c1cc2ccc(-c3nc(Nc4ccc(-c5cn[nH]c5)cc4)c4sccc4n3)cc2[nH]1 [TDI01424, 6-(4-((4-(1H-pyrazol-4-yl)phenyl)amino)thieno[3,2-d]pyrimidin-2-yl)-N-cyclobutyl-1H-indole-2-carboxamide] |
| 109 | CC(C)NC(=O)c1cc2ccc(-c3nc(Nc4ccc(-c5cn[nH]c5)cc4)c4sccc4n3)cc2[nH]1 [TDI01370, 6-(4-((4-(1H-pyrazol-4-yl)phenyl)amino)thieno[3,2-d]pyrimidin-2-yl)-N-isopropyl-1H-indole-2-carboxamide] |
| 46 | O=C(Nc1ccc2[nH]ncc2c1)c1cc2ccc(-c3nccc(Nc4ccc5[nH]ncc5c4)n3)cc2[nH]1 [TDI01182, 6-(4-((1H-indazol-5-yl)amino)pyrimidin-2-yl)-N-(1H-indazol-5-yl)-1H-indole-2-carboxamide] |
| 289 | CN(C(=O)c1cc2ccc(-c3nccc(Nc4ccc(-c5cn[nH]c5)cc4)n3)cc2[nH]1)c1ccncc1 [TDI01421, 6-(4-((4-(1H-pyrazol-4-yl)phenyl)amino)pyrimidin-2-yl)-N-methyl-N-(pyridin-4-yl)-1H-indole-2-carboxamide] |
| 482 | O=C(c1cc2ccc(-c3nccc(Nc4ccc(-c5cn[nH]c5)cc4)n3)cc2[nH]1)N1CCO[C@@H](CO)C1 [TDI01852, (R)-(6-(4-((4-(1H-pyrazol-4-yl)phenyl)amino)pyrimidin-2-yl)-1H-indel-2-yl)(2-(hydroxymethyl)morpholino)methanone] |
| 97 | O=C(Nc1ccncc1I)c1cc2ccc(-c3nccc(Nc4ccc(-c5cn[nH]c5)cc4)n3)cc2[nH]1 [TDI01829C] |
| 472 | CC(C)NC(=O)c1ccc2ccc(-c3nccc(Nc4ccc5[nH]ncc5c4)n3)cc2n1 [TDI01327, 7-(4-((1H-indazol-5-yl)amino)pyrimidin-2-yl)-N-isopropylquinoline-2-carboxamide] |
| 115 | O=C(NC1CCOCC1)c1cc2ccc(-c3nccc(Nc4ccc(-c5cn[nH]c5)cc4)n3)cc2[nH]1 [TDI01338, 6-(4-((4-(1H-pyrazol-4-yl)phenyl)amino)pyrimidin-2-yl)-N-(tetrahydro-2H-pyran-4-yl)-1H-indole-2-carboxamide] |
| 33 | COC(=O)c1ccc(NC(=O)c2cc3ccc(-c4nccc(Nc5ccc6[nH]ncc6c5)n4)cc3[nH]2)cc1 [TDI01130, methyl 4-(6-(4-((1H-indazol-5-yl)amino)pyrimidin-2-yl)-1H-indole-2-carboxamido)benzoate] |
| 54 | O=C(Nc1cnccn1)c1cc2ccc(-c3nccc(Nc4ccc5[nH]ncc5c4)n3)cc2[nH]1 [TDI01160, 6-(4-((1H-indazol-5-yl)amino)pyrimidin-2-yl)-N-(pyrazin-2-yl)-1H-indole-2-carboxamide] |
